Data: PMC6356579, “Mass Spectrometry Analysis and Biological Characterization of the Predatory Ant Odontomachus monticola Venom and Venom Sac Components” (Toxins, 2019)
Where two headings read alike, the source gives them in different places. Marks after values point to notes of the source that are not given here. Bridge positions count the residues as written; N and C are the ends. Ends that are not written are not given here. I, II: the chains in the order shown.

Experiments:
[1] = tested on: S. aureus (NBRC 12732); type: cell-based, Staphylococcus aureus; conditions: minimum inhibitory concentration; synthetic peptides; method as described previously [6]
From the text: (§1) Pilosulin-like peptides 1–6 were chemically synthesized by the 9-fluorenylmethyloxycarbonyl (Fmoc) method, and we examined their biological activities (Table 3). We synthesized homodimeric pilosulin-like peptide 4, which was linked by a single disulfide bond. […] These activities were higher than those of magainin, a well-known Xenopus laevis antimicrobial peptide. […] The cysteine residue of pilosulin-like peptide 4 may be important for antifungal activity.
(§2) Pilosulin-like peptides 1–6 were prepared using Fmoc chemistry by GenScript (Nanjing, Jiangsu, China). The peptides were purified by RP-HPLC with a preparative C18 column. The purity and molecular weight of the final peptides were verified by HPLC and MS. Antimicrobial, hemolytic, and histamine-releasing activities were measured as described previously.

[2] = tested on: S. cerevisiae (NBRC 10217); type: cell-based, Saccharomyces cerevisiae; conditions: minimum inhibitory concentration; synthetic peptides; method as described previously [6]
From the text: as §1, §2

[3] = Hemolytic activity; type: cell-based; conditions: for Hemolytic Activity (%) at 10 μM: peptide at 10 μM; for Hemolytic Activity (%) at 50 μM: peptide at 50 μM
Experimental: as §2

[4] = tested on: E. coli (NBRC 14237); type: cell-based, Escherichia coli; conditions: minimum inhibitory concentration; synthetic peptides; method as described previously [6]
From the text: as §1, §2

[5] = tested on: rat mast cells; conditions: peptide at 10 μM; ref Shigeri et al. [24]; cited from earlier work
Experimental: Table 3 Biological properties of O. monticola pilosulin-like peptides. | column: Histamine-Releasing Activity at 10 μM (%)

[6] = peptide at 10 μM; ref Shigeri et al. [24]; cited from earlier work
Experimental: Table 3 Biological properties of O. monticola pilosulin-like peptides. | column: Hemolytic Activity (%) / at 10 μM

[7] = tested on: rat mast cells; experiment: Histamine-releasing activity; type: cell-based; conditions: peptide at 10 μM
Experimental: as §2

Substance | MIC, S. aureus (NBRC 12732) [1] [µM] | MIC, S. cerevisiae (NBRC 10217) [2] | Hemolytic Activity (%) at 10 μM [3] | Hemolytic Activity (%) at 50 μM [3] | MIC, E. coli (NBRC 14237) [4] [µM] | Histamine-Releasing Activity at 10 μM (%) [5] | Hemolytic Activity (%) at 10 μM [6] | Histamine-Releasing Activity at 10 μM (%) [7] [%] | Histamine-Releasing Activity at 10 μM (%) ([7]; listed as Pilosulin-like peptide 4)
GILDWGKKVMDWIKDKM-NH2 [PLP1] | <3.1 | <50 µM | Negative | Negative | <3.1 | – | – | – | –
IKGKKIMKNMGKAMKIAGKVAKAMAPIVVPLIVSAA-NH2 [PLP6] | <3.1 | – | Negative | Negative | <3.1 | – | – | – | –
Mastoparan | – | – | – | – | – | 31.1 ^b % | 13.5 ^b % | – | –
IWGALLGTLIPAITSAIQ-NH2 [PLP5] | – | – | 6.9% | 94.8% | <50 | – | – | – | –
I: GVKELFGKAWGLVKKHLPKACGLLGYVKQ-OH / II: GVKELFGKAWGLVKKHLPKACGLLGYVKQ-OH (disulfide I:21-II:21) [PLP4] | <3.1 | <3.1 µM | Negative | 10.5% | <3.1 | – | – | 66.4 | comparable to that of melittin
GWGSIFKTVGKMIAKAAVKAAPEAISAMASQNE [PLP2] | <6.2 | <50 µM | Negative | 10.4% | <6.2 | – | – | – | –
KIKWGKIFKKGGKLIGKTALEAAANAAASEAISAMASQNE [PLP3] | <25 | <50 µM | Negative | Negative | <3.1 | – | – | – | –
Magainin [reference compound] | <25 | Negative | – | – | <12.5 | – | – | – | –
Melittin: a honey bee hemolytic peptide | – | – | – | – | – | 64.3 ^b % | 100.0 ^b % | – | –
